Experimental data published in PubChem BioAssay AID1259407 (Chemical Carcinogenesis Research Information System (CCRIS), 2018).
Active and inactive are the calls of the source. No rule for the calls is given here.

System: CCRIS mutagenicity, Ames/micronucleus/aberration tests
Assay: CCRIS mutagenicity studies
[1] = Test System: AMES SALMONELLA TYPHIMURIUM, Strain/Indicator: TA98, Metabolic Activation: NONE, Method: PREINCUBATION

Measured: mutagenic call

CCCN(CCC)C(=O)SCC
inactive: End Point: In vitro chromosomal aberrations, Test System: Chinese hamster ovary (CHO) cells, Metabolic Activation: None inactive; negative | End Point: In vitro chromosomal aberrations, Test System: Chinese hamster ovary (CHO) cells, Metabolic Activation: Rat, Liver, S-9 inactive; negative | End Point: In vitro chromosomal aberrations, Test System: Mouse lymphoma cells, Strain/Indicator: L5178Y (tk+/tk-), Metabolic Activation: S-9 inactive; negative | Test System: AMES SALMONELLA TYPHIMURIUM, Strain/Indicator: TA97, Metabolic Activation: HAMSTER, LIVER, S-9, AROCLOR 1254 (10 OR 30%), Method: PREINCUBATION inactive; negative | Test System: AMES SALMONELLA TYPHIMURIUM, Strain/Indicator: TA97, Metabolic Activation: NONE, Method: PREINCUBATION inactive; negative | Test System: AMES SALMONELLA TYPHIMURIUM, Strain/Indicator: TA97, Metabolic Activation: RAT, LIVER, S-9, AROCLOR 1254 (10 OR 30%), Method: PREINCUBATION inactive; negative | Test System: AMES SALMONELLA TYPHIMURIUM, Strain/Indicator: TA98, Metabolic Activation: HAMSTER, LIVER, S-9, AROCLOR 1254 (10%), Method: PREINCUBATION inactive; negative | Test System: AMES SALMONELLA TYPHIMURIUM, Strain/Indicator: TA98, Metabolic Activation: HAMSTER, LIVER, S-9, AROCLOR 1254 (30%), Method: PREINCUBATION inactive; negative | [1] inactive; negative | Test System: AMES SALMONELLA TYPHIMURIUM, Strain/Indicator: TA98, Metabolic Activation: RAT, LIVER, S-9, AROCLOR 1254 (10%), Method: PREINCUBATION inactive; negative | Test System: AMES SALMONELLA TYPHIMURIUM, Strain/Indicator: TA98, Metabolic Activation: RAT, LIVER, S-9, AROCLOR 1254 (30%), Method: PREINCUBATION inactive; negative | Test System: AMES SALMONELLA TYPHIMURIUM, Strain/Indicator: TA100, Metabolic Activation: HAMSTER, LIVER, S-9, AROCLOR 1254 (10%), Method: PREINCUBATION inactive; negative | Test System: AMES SALMONELLA TYPHIMURIUM, Strain/Indicator: TA100, Metabolic Activation: HAMSTER, LIVER, S-9, AROCLOR 1254 (30%), Method: PREINCUBATION inactive; negative | Test System: AMES SALMONELLA TYPHIMURIUM, Strain/Indicator: TA100, Metabolic Activation: NONE, Method: PREINCUBATION inactive; negative | Test System: AMES SALMONELLA TYPHIMURIUM, Strain/Indicator: TA100, Metabolic Activation: RAT, LIVER, S-9, AROCLOR 1254 (10%), Method: PREINCUBATION inactive; negative | Test System: AMES SALMONELLA TYPHIMURIUM, Strain/Indicator: TA100, Metabolic Activation: RAT, LIVER, S-9, AROCLOR 1254 (30%), Method: PREINCUBATION inactive; negative | Test System: AMES SALMONELLA TYPHIMURIUM, Strain/Indicator: TA1535, Metabolic Activation: HAMSTER, LIVER, S-9, AROCLOR 1254 (10 OR 30%), Method: PREINCUBATION inactive; negative | Test System: AMES SALMONELLA TYPHIMURIUM, Strain/Indicator: TA1535, Metabolic Activation: NONE, Method: PREINCUBATION inactive; negative | Test System: AMES SALMONELLA TYPHIMURIUM, Strain/Indicator: TA1535, Metabolic Activation: RAT, LIVER, S-9, AROCLOR 1254 (10 OR 30%), Method: PREINCUBATION inactive; negative | Test System: AMES SALMONELLA TYPHIMURIUM, Strain/Indicator: TA1537, Metabolic Activation: HAMSTER, LIVER, S-9, AROCLOR 1254 (10 OR 30%), Method: PREINCUBATION inactive; negative | Test System: AMES SALMONELLA TYPHIMURIUM, Strain/Indicator: TA1537, Metabolic Activation: NONE, Method: PREINCUBATION inactive; negative | Test System: AMES SALMONELLA TYPHIMURIUM, Strain/Indicator: TA1537, Metabolic Activation: RAT, LIVER, S-9, AROCLOR 1254 (10 OR 30%), Method: PREINCUBATION inactive; negative | Test System: Ames Salmonella typhimurium, Strain/Indicator: TA98, Metabolic Activation: None, Method: Plate incorporation amd preincubation (2 trials) inactive; negative. (cytotoxicity at doses of 1000 ug/plate and above.) | Test System: Ames Salmonella typhimurium, Strain/Indicator: TA98, Metabolic Activation: Rat, Liver, S-9, Aroclor, Method: Plate incorporation inactive; negative. (cytotoxicity at doses of 1000 ug/plate and above.) | Test System: Ames Salmonella typhimurium, Strain/Indicator: TA100, Metabolic Activation: None, Method: Plate incorporation amd preincubation (2 trials) inactive; negative. (cytotoxicity at doses of 1000 ug/plate and above.) | Test System: Ames Salmonella typhimurium, Strain/Indicator: TA100, Metabolic Activation: Rat, Liver, S-9, Aroclor, Method: Plate incorporation inactive; negative. (cytotoxicity at doses of 1000 ug/plate and above.) | Test System: Ames Salmonella typhimurium, Strain/Indicator: TA1535, Metabolic Activation: None, Method: Plate incorporation amd preincubation (2 trials) inactive; negative. (cytotoxicity at doses of 1000 ug/plate and above.) | Test System: Ames Salmonella typhimurium, Strain/Indicator: TA1535, Metabolic Activation: Rat, Liver, S-9, Aroclor, Method: Plate incorporation inactive; negative. (cytotoxicity at doses of 1000 ug/plate and above.) | Test System: Ames Salmonella typhimurium, Strain/Indicator: TA1537, Metabolic Activation: None, Method: Plate incorporation amd preincubation (2 trials) inactive; negative. (cytotoxicity at doses of 1000 ug/plate and above.) | Test System: Ames Salmonella typhimurium, Strain/Indicator: TA1537, Metabolic Activation: Rat, Liver, S-9, Aroclor, Method: Plate incorporation inactive; negative. (cytotoxicity at doses of 1000 ug/plate and above.) | Test System: E. coli, Strain/Indicator: WP2P/WP2P uvrA, Metabolic Activation: None, Method: Plate incorporation amd preincubation (2 trials) inactive; negative. (cytotoxicity at doses of 1000 ug/plate and above.) | Test System: E. coli, Strain/Indicator: WP2P/WP2P uvrA, Metabolic Activation: Rat, Liver, S-9, Aroclor, Method: Plate incorporation inactive; negative. (cytotoxicity at doses of 1000 ug/plate and above.) | Test System: UDS primary rat hepatocytes, Strain/Indicator: Thymidine incorporation, Method: Liquid scintillation counting inactive; negative
active: End Point: In vitro chromosomal aberrations, Test System: Mouse lymphoma cells, Strain/Indicator: L5178Y (tk+/tk-), Metabolic Activation: None active; positive (structure and ploidy) | Test System: Mouse lymphoma cells, Strain/Indicator: L5178Y (tk+/tk-), Metabolic Activation: None, Method: Not given by California Department of Pesticides Regulation active; positive | Test System: Mouse lymphoma cells, Strain/Indicator: L5178Y (tk+/tk-), Metabolic Activation: Rat, Liver, S-9, Method: Not given by California Department of Pesticides Regulation active; positive

O=C1NC(=S)NC(=O)C1C(=O)Nc1ccccc1
inactive: Test System: AMES SALMONELLA TYPHIMURIUM, Strain/Indicator: TA102, Metabolic Activation: NONE, Method: STANDARD PLATE inactive; negative | Test System: CHINESE HAMSTER V-79, Strain/Indicator: V-79 (HPRT)/6-THIOGUANINE, Metabolic Activation: NONE inactive; negative
active: Test System: MOUSE LYMPHOMA, Strain/Indicator: L5178Y (HPRT)/6-THIOGUANINE, Metabolic Activation: NONE, Method: FLUCTUATION TEST active; positive | Test System: MOUSE LYMPHOMA, Strain/Indicator: L5178Y (TK+/TK-), Metabolic Activation: NONE, Method: FLUCTUATION TEST active; positive

O=c1c2ccccc2c(=O)c2c1ccc1c3ccc4c(=O)c5c(ccc6c7ccc8c(=O)c9ccccc9c(=O)c8c7[nH]c65)c(=O)c4c3[nH]c12
active: Test System: Ames Salmonella typhimurium, Strain/Indicator: TA98, Metabolic Activation: None, Method: Preincubation active; positive
inactive: Test System: Ames Salmonella typhimurium, Strain/Indicator: TA100, Metabolic Activation: None, Method: Preincubation inactive; negative | Test System: Ames Salmonella typhimurium, Strain/Indicator: TA102, Metabolic Activation: None, Method: Preincubation inactive; negative | Test System: Ames Salmonella typhimurium, Strain/Indicator: TA1535, Metabolic Activation: None, Method: Preincubation inactive; negative

CCN(CC)[N+](=O)[O-]
inactive: Test System: E. COLI, Strain/Indicator: WP2 (HCR-), Metabolic Activation: RAT, LIVER, MICROSOMES, PHENOBARBITAL inactive; negative

CCCCOC(=O)c1cccc2cccnc12
inactive: Test System: AMES SALMONELLA TYPHIMURIUM, Strain/Indicator: TA98, Metabolic Activation: NONE, Method: STANDARD PLATE inactive; negative | Test System: AMES SALMONELLA TYPHIMURIUM, Strain/Indicator: TA98, Metabolic Activation: RAT, LIVER, S-9, AROCLOR 1254, Method: STANDARD PLATE inactive; negative | Test System: AMES SALMONELLA TYPHIMURIUM, Strain/Indicator: TA100, Metabolic Activation: NONE, Method: STANDARD PLATE inactive; negative | Test System: AMES SALMONELLA TYPHIMURIUM, Strain/Indicator: TA100, Metabolic Activation: RAT, LIVER, S-9, AROCLOR 1254, Method: STANDARD PLATE inactive; negative | Test System: AMES SALMONELLA TYPHIMURIUM, Strain/Indicator: TA1535, Metabolic Activation: NONE, Method: STANDARD PLATE inactive; negative | Test System: AMES SALMONELLA TYPHIMURIUM, Strain/Indicator: TA1535, Metabolic Activation: RAT, LIVER, S-9, AROCLOR 1254, Method: STANDARD PLATE inactive; negative | Test System: AMES SALMONELLA TYPHIMURIUM, Strain/Indicator: TA1537, Metabolic Activation: NONE, Method: STANDARD PLATE inactive; negative | Test System: AMES SALMONELLA TYPHIMURIUM, Strain/Indicator: TA1537, Metabolic Activation: RAT, LIVER, S-9, AROCLOR 1254, Method: STANDARD PLATE inactive; negative

Cc1c([N+](=O)[O-])ccc2ccccc12
active: [1] active; positive
